The text below walks through data of US10039807B2, “bFGF-polymer conjugates, methods for making the same and applications thereof” (THE REGENTS OF THE UNIVERSITY OF CALIFORNIA, priority 2011, dated 2018).

Data set [1] has as its system Human Dermal Fibroblast (HDF) cells. Kind of data set: Bioactivity study: HDF proliferation, CellTiter-Blue assay, untreated samples. Type of data set: cell-based. The following applies: no stress, samples stored at −80° C. before use; 1 ng/ml bFGF or bFGF in conjugate; 72 hours; normalized to blank. The protocol:
(§1) Preparation of untreated and treated samples is detailed in the Methods section. The concentrations of bFGF and bFGF in the conjugates under treatment were 0.05 ng/μL. The concentration of heparin under treatment was 0.075 ng/μl or 0.05 μg/μl, while the concentrations of the unconjugated polymers were 0.075 ng/μl. The final concentrations of bFGF and bFGF conjugates in the medium were 1 ng/ml. Incubation of HDF with each of the samples was carried out for 72 hours. CellTiter® blue assay was performed to quantify percent cell growth. Data was normalized to the blank sample (no bFGF added) in that same treatment group. Each sample was done with six repeats, and the whole experiment was repeated eight times including one blinded study, except (+)bFGF(+)1.5 ng/ml pPEGMA and (+)bFGF-pPEGMA were repeated four times. Error bars are SEM. Statistical analysis was done using two-way ANOVA and Student's T-test. * denotes p<0.05, ** denotes p<0.01 and *** denotes p<0.001 between the sample indicated and the (+) bFGF (−) heparin within that same stress set.
HDF cells were trypsinized and resuspended in UltraCULTURE™ serum-free medium supplemented with 2 mM L-Glutamine and 100 u/ml penicillin and 100 μg/ml streptomycin. The cells were plated at a concentration of 2000 cells/well in a 96-well plate and allowed to adhere over 16 hours at 37° C., 5% CO2. […] Then, the medium in the wells was replaced with 100 μl of each sample. After an incubation for 72 hours at 37° C., 5% CO2, CellTiter-Blue® assay was carried out to evaluate cell proliferation. […] Each group was done with six replicates, and the whole experiment was repeated four times, one of which was a blinded study.
HDFs were used as the in vitro model to evaluate the bioactivity of the bFGF-heparin mimicking polymer conjugate before and after exposure to various stresses.
For orientation: Resazurin is reduced to fluorescent resorufin, in cell work by metabolically active cells.

For data set [2] the test system is unchanged. The data set is described as follows: Stability study of bFGF and bFGF conjugates under treatments, read out as HDF proliferation. Type of data set: cell-based. The conditions noted are these: for percent cell growth after trypsin treatment: 0.1% w/v trypsin for 16 hours at 4° C.; for bioactivity after mildly acidic conditions: pH 4.7 for 16 hours at 4° C.; for percent cell growth after storage: storage at 4° C. for 16 hours. The protocol:
as §1
To study the stability of bFGF and bFGF conjugates under various treatments (storage, acidic conditions, protease degradation, and heat), the protein and the conjugates were diluted in medium after these treatments and tested for their bioactivity in promoting HDF proliferation.
The control blank group contained 15 μl of D-PBS. The 15 μl/experimental group was split into 4 vials of 3 μl/vial for four separate treatments. In one set of the 3 μl-vials, 27 μl of D-PBS was added to each vial and the samples were stored at 4° C. for 16 hours. In another set of 3 μl-vials, 27 μl of pH 4.7 PBS was added to each vial and the samples were stored at 4° C. for 16 hours. In the third set of 3 μl-vials, 27 μl of 0.1% Trypsin was added to each vial and the samples were stored at 4° C. for 16 hours. The fourth set of 3 μl-vials were stored at 4° C. for 16 hours before 27 μl of 1% TFA was added and treated for 2 hours at 4° C. The samples under no treatment and under heat treatment were prepared fresh in the same way towards the end of the 16 hour-treatment of other samples. The samples under heat treatment were placed in dry bath at 55° C. for 30 minutes. […] Then, the medium samples were used for cell proliferation assay as described above. After an incubation for 72 hours at 37° C., 5% CO2, CellTiter-Blue® assay was carried out to evaluate cell proliferation. […] Each group was done with six replicates, and the whole experiment was repeated four times, one of which was a blinded study. A two-way ANOVA and student's T-test were done for statistical analysis.
The chosen treatments represent environmental stresses that the growth factor (or any heparin-binding protein) could be exposed to. For example, storage in the unfrozen form and exposure to heat during delivery, transport, or use were represented by the “Storage at 4° C. for 16 hours” treatment and “Heat at 55° C. for 30 minutes” treatment, respectively. Incubation at “pH 4.7 for 16 hours” is relevant because mildly acidic conditions are necessary to inhibit bacterial growth during wound treatment.
Furthermore, the stability of the bFGF-heparin mimicking conjugate was challenged against proteolytic degradation and extreme acidic conditions by incubating with 0.1% w/v trypsin for 16 hours and 1% trifluoroacetic acid (TFA) for 2 hours, respectively. The starting concentrations of bFGF and bFGF in the conjugates were equivalent and the concentrations of the unconjugated polymers and heparin were the same at approximately stoichiometric ratios to bFGF. The positive control group contained a large excess (700 molar) of heparin to bFGF. The negative control was native bFGF alone.

The test system is the same in data set [3]. Kind of data set: Bioactivity after 4-week storage at 4° C., HDF proliferation. Type of data set: cell-based. The conditions noted are these: 4 weeks of storage at 4° C., then 1 ng/ml on HDF for 72 hours. The protocol:
FIG. 4B depicts exemplary bioactivity study of bFGF-heparin mimicking (bFGF-pSS-co-PEGMA) conjugate in promoting HDF proliferation compared to other control groups before and after the treatments. Preparation of untreated and treated samples is detailed in the Methods section. The concentrations of bFGF and bFGF in the conjugates under treatment were 0.05 ng/μL. The concentration of heparin under treatment was 0.075 ng/μl or 0.05 μg/μl, while the concentrations of the unconjugated polymers were 0.075 ng/μl. The final concentrations of bFGF and bFGF conjugates in the medium were 1 ng/ml. Bioactivity study of bFGF-heparin mimicking polymer, bFGF-pSS-co-PEGMA conjugate, after 4-week storage at 4° C. Data was normalized to the blank sample (contained medium only). Each group was done with six replicates.
Bioactivity study of bFGF-pSS-co-PEGMA conjugate after long-time storage was also tested. After 4 weeks of storage 4° C.
In these experiments, an amount of 30 μl of each experimental group in D-PBS was made up to contain 0.05 ng/μ1 of bFGF or bFGF-pSS-co-PEGMA conjugate. The positive control group was prepared to contain 0.05 ng/μl of bFGF and 0.05 μg/μl of heparin. The samples were then stored at 4° C. for 4 weeks. […]

Data set [4] shares this test system. In kind it is cell-based. The conditions noted are these: 1 ng/ml bFGF or conjugate, 72 hours, with 125 nM PD173074. The protocol: FIG. 6 depicts the exemplary results of an inhibition assay. The medium samples were prepared with and without 125 nM of PD173074. 2,000HDF cells/well was incubated with each of the sample for 72 hours at 37° C., 5% CO2. Each sample group was done with six replicates, and the whole experiment was repeated three times.
To confirm that the bFGF-heparin mimicking conjugate promoted cell growth by the same transduction pathway as by native bFGF, a potent inhibitor for FGF receptor 1 (FGFR1) was included in the media. PD173074 (N-[2-[[4-(diethylamino)butyl]amino]-6-(3, 5-dimethoxyphenyl)pyrido[2, 3-d]pyrimidin-7-yl]-N′-(1, 1-dimethylethyl)-urea) competes with adenosine-5′-triphosphate (ATP) for binding to the receptors, a key step for FGFR phosphorylation, and shuts down the signal transduction pathways associated with cell proliferation.
HDF cells were trypsinized and resuspended in UltraCULTURE™ serum-free medium supplemented with 2 mM L-Glutamine and 100 u/ml penicillin and 100 μg/ml streptomycin. […] On the next day, the experimental groups were prepared to contain 1 ng/ml of bFGF, or 1 ng/ml of bFGF with 1 μg/ml of heparin, or 1 ng/ml of bFGF-pSS-co-PEGMA; all with an addition of 125 nM of the inhibitor PD173074. The control groups were the replicates but without the addition of the inhibitor. Then, the medium in the wells was replaced with 100 μl of each sample. […]

For a further data set, the system named is BaF3 cells (FR1C-11). Kind of data set: Proliferation study of BaF3 cells expressing FGFR1 and lacking heparan sulfate proteoglycans. In kind it is cell-based. The conditions noted are these: 42 hours, medium lacking IL-3, normalized to blank; for percent cell growth, bFGF or conjugate alone: 1 ng/ml, without heparin. The procedure: BaF3 cells (FR1C-11), which express FGFR1 but lack heparin sulfate proteoglycans, were seeded at a density of 20,000 cells/well in cultured medium lacking IL-3 in a 96-well-plate. […] The cells were incubated for 42 hours. CellTiter® blue assay was performed to quantify percent cell growth. Data was normalized to blank sample group. Each group was done with six replicates. Error bars are standard deviations.
Heparin (as cell surface receptors called heparan sulfate proteoglycans) is also known to increase the mitogenic activity of bFGF by increasing binding to the bFGF receptors (FGFRs). In addition, heparin promotes bFGFR dimerization by providing the “glue” between two bFGFs and two FGFRs (see crystal structure, FIGS. 12B and 12C). In fact, this heparin assisted, ligand-induced dimerization of bFGFRs is required for activity. […] In some embodiments, the new heparin mimicking polymer can induce the dimerization and uptake the FGFRs.
While bFGF interacts directly with cells by binding to FGFRs, signal transduction cannot occur without the simultaneous interaction with heparan sulfate proteoglycan (HS) cell surface receptors. […] BaF3 cells are engineered to express FGFR1 and lack cell-surface HS; addition of soluble heparin is required to activate the cells with bFGF.

Data set [5] deals with Human Dermal Fibroblast (HDF) cells. The conditions noted are these: 1 ng/ml to 1 mg/ml for 24 hours in the absence of bFGF.
Procedure: 5,000 HDF cells/well was incubated with various concentrations of each polymer for 24 hours at 37° C., 5% CO2. Then, each well was washed twice with D-PBS and subsequently incubated with 1 μM Calcein AM 4 μM Ethidium homodimer-1 in D-PBS for 20 minutes at 37° C., 5% CO2. Percentage of live cells was calculated by dividing the number of live cells by the total number of live and dead cells. Each experimental group was done with four replicates, and the whole experiment was repeated four times, one of which was a blinded study. Error bars are SEMs.
HDF cells were trypsinized and resuspended in fibroblast growth medium lacking bFGF. The cells were plated at a concentration of 5000 cells/well in a 48-well plate and allowed to adhere over 16 hours at 37° C., 5% CO2. Then, the medium in the wells was replaced with 200 μl of the working medium containing various amount of polymer/heparin. After an incubation of 24 hours at 37° C., 5% CO2, cell viability was assessed using LIVE/DEAD® viability/cytotoxicity assay. Briefly, the cells were washed twice with pre-warmed D-PBS, then incubated with 200 μl of 1 μM Calcein AM and 4 μM Ethidium homodimer-1 in D-PBS for 20 minutes at 37° C., 5% CO2. […] The numbers of live and dead cells were counted manually using NIH Image J software, and percent live cells was calculated by dividing the number of live cells by the total number of live and dead cells. […]
Setting [6] is: then 1 ng/ml on HDF for 72 hours.

In turn, “bFGF-pSS-co-PEGMA: bFGF covalently conjugated via a reversible disulfide bond to one heparin mimicking polymer pSS-co-PEGMA (mono-conjugate)” had a percent cell growth in data set [1] of 213±13%. In addition, in data set [2] (setting [6]), the “percent cell growth after trypsin treatment” value came out at 176±11%, the “bioactivity after mildly acidic conditions” value is recorded as “statistically the same as before treatment” and the “percent cell growth after storage” value is listed as 210±10%. In addition, the “percent cell growth after TFA treatment” value in data set [2] (1% trifluoroacetic acid (TFA) for 2 hours, then 1 ng/ml on HDF for 72 hours) is 162±17%. The “percent cell growth after heat treatment” value in data set [2] (heat at 55° C. for 30 minutes, then 1 ng/ml on HDF for 72 hours) was 167±12%. For the same substance, in data set [2] (storage, pH 4.7, trypsin, 1% TFA, heat, read out as HDF proliferation), the “stability to the treatments (overall)” value is “stable”. Further, in data set [3], the “activity after long-time storage” value was “completely retained”. Also, the “percent cell growth in the presence of PD173074” value in data set [4] was determined as 85±11%. Further, in the data set on BaF3 cells (FR1C-11), the “percent cell growth, bFGF or conjugate alone” value is on record as “did not induce cell growth”. In the data set with BaF3 cells (FR1C-11) (listed as bFGF-pSS-co-pPEGMA), the “percent cell growth, bFGF or conjugate alone” value came out at 147±14%.
Turning to “bFGF-poly(ethylene glycol) methyl ether methacrylate) [bFGF-pPEGMA, reference compound]”, in data set [1], the percent cell growth is on record as 190±6%. Also, in data set [2] (setting [6]), the “percent cell growth after trypsin treatment” value was “some stability”, the “bioactivity after mildly acidic conditions” value is “some stability” and the “percent cell growth after storage” value is “some stability”.
In the case of “bFGF: Basic fibroblast growth factor, a 16-kDa polypeptide, also called fibroblast growth factor 2”, in data set [1], the percent cell growth was determined as 192±9%. The “percent cell growth in the presence of PD173074” value in data set [4] turned out to be 88±5%. Besides, the “percent cell growth, bFGF or conjugate alone” value in the data set on BaF3 cells (FR1C-11) is on record as 127±12%.
As to heparin [reference compound], the “percent cell growth, additive given with bFGF” value in the data set with BaF3 cells (FR1C-11) (1 μg/ml of additive with 1 ng/ml of bFGF) amounted to 384±35%. Further, the percent cell viability result in data set [5] is “the same as no polymer added”.
